From patent publication US6372795B1, “Cosmetic compositions containing substituted amide derivatives” (Unilever Home and Personal Care USA, A Division of Conopco, …, priority 2000, dated 2002)
Several values for one entry are separate records, joined by “and”; a condition that tells them apart may be missing. Identical values can stand only once. Like-named read-outs stand apart in the source and are kept apart here.

Test system: human sebocytes
Assay: Sebum suppression in secondary cultures of human sebocytes (14C-acetate label remaining in sebocytes)
Format: cell-based
Settings: for activity at 1 µM / activity at 10 µM: Homo sapiens, read-out: % of Control; for activity at 1 µM / activity at 10 µM / % of Control: human sebocytes; for sebum suppressive activity in the presence of a retinoid (combined with retinol): compared with compound alone, summary in words
Experimental: Compounds A through G were tested for their potential to suppress sebum expression, alone or in the presence of a retinoid.
Secondary cultures of human sebocytes obtained from an adult […] were grown in 48-well tissue culture plates (Costar Corp.; Cambridge, Ma.) or 96-well tissue culture plates (Packard Co.; Meriden, Conn.) until confluent. Sebocyte growth medium consisted of Clonetics Keratinocyte Basal Medium (KBM) supplemented with 14 μg/ml bovine pituitary extract, 0.4 μg/ml hydrocortisone, 5 μg/ml insulin, 10 ng/ml epidermal growth factor, 1.2×10^-10 M cholera toxin, 100 units/ml penicillin, and 100 μg/ml streptomycin. All cultures were incubated at 37° C. in the presence of 7.5% CO2. Medium was changed three times per week.
On the day of experimentation, the growth medium was removed and the sebocytes washed three times with sterile Dulbecco's Modified Eagle Medium (DMEM; phenol red free). Fresh DMEM was added to each sample (duplicates, triplicates, or quadruplicates depending on the experiment) with 5 microliter of test agent solubilized in ethanol either alone or in the presence of one or 10 micromolar of retinol. Controls consisted of addition of ethanol alone, retinol alone, or phenol red, which has estrogen-like activity and is included as a positive control.
Each plate was returned to the incubator for 20 hours followed by the addition of 14C-acetate buffer (5 mM final concentration, 56 mCi/mmol specific activity). Sebocytes were returned to the incubator for four hours afterwhich each culture was rinsed three times with phosphate buffered saline to remove unbound label. Radioactive label remaining in the sebocytes was harvested and counted using a Beckman scintillation counter.

[1] = 1 μM test compound + 1 μM Retinol
[2] = 1 μM test compound + 10 μM Retinol
[3] = 1 μM test compound alone, 20 h + 4 h 14C-acetate
[4] = 10 μM test compound + 1 μM Retinol
[5] = 10 μM test compound + 10 μM Retinol

Row | SMILES | activity at 1 µM [1] [%] | activity at 1 µM [2] [%] | activity at 1 µM [3] [%] | activity at 10 µM (10 μM test compound alone) [%] | sebum suppressive activity in the presence of a retinoid (combined with retinol) | also measured
1 | CCOC(=O)c1ccc(NC(=O)Nc2cccc(C(C)O)c2)cc1 (centres unmarked) [Compound D] | 82.8 | 78 | 82.4 | 58.5 | improved sebum suppressive activity | activity at 10 µM [4]: 66.8%; activity at 10 µM [5]: 25%
2 | O=C(Nc1ccc(O)cc1)Nc1cccc(C(F)(F)F)c1 [Compound E] | – | – | – | – | improved sebum suppressive activity | –
3 | CCOC(=O)c1ccc(NC(=O)Nc2ccc(O)cc2)cc1 [Compound F] | 71 | 76.2 | 84 | 57.4 | improved sebum suppressive activity | % of Control [4]: 53.1% and 73.4%; % of Control [5]: 63.4% and 40.4%; % of Control (10 μM test compound alone, 10 µM): 72.0%
4 | Cc1cccc(N2CCN(C(=O)CC3C=CC(CC(=O)N4CCN(c5cccc(C)c5)C(C)C4)C3)CC2C)c1 (centres unmarked) [G] | – | – | – | – | improved sebum suppressive activity | –
5 | CC1=C(/C=C/C(C)=C/C=C/C(C)=C/CO)C(C)(C)CCC1 [Retinol, retinol, reference compound] | – | – | – | – | – | % of Control (1 μM Retinol alone): 99.9%; % of Control (10 μM Retinol alone): 103.7% and 100.9% and 100.1%; sebum suppressive activity (substance alone, summary in words of Tables 1-12): inactive
